Source: US20110152298A1, “IMIDAZO [2,1-B] QUINAZOLIN-2-ONE DERIVATIVES AND THEIR USE AS PLATELET ANTI-AGGREGATIVE AGENTS” (SHIRE LLC, priority 2008, published 2011)

Legend:
[1] = system: human phosphodiesterase III (PDE III); experiment: PDE III inhibition; assay type: biochemical
From the text: In early volunteer trials, the most frequently reported adverse effects AEs other than headache were palpitations, postural dizziness and nausea. During patient studies, the most frequently reported drug-related AEs were headache, palpitations, oedema/fluid retention, nausea/vomiting, diarrhea, dizziness and abdominal pain. These effects are all likely to arise from the secondary, cardiovascular pharmacology associated with anagrelide resulting from its inhibitory effects on human phosphodiesterase III (PDE III). […] Inhibition of myocardial PDE III leads to positive inotropy (increasing of the force of contractions of the heart), increased chronotropy (increase in heart rate), and peripheral vasodilatation. Such cardiovascular manifestations of this inhibition are typically seen with the classical positive inotropes, milrinone and enoximone, and exploited in the short-term acute treatment of congestive heart failure. However, in the treatment of a so-called silent disease (i.e., asymptomatic) such as ET, the cardiovascular side-effects of palpitations and tachycardia associated with anagrelide limit its utility and a significant proportion of patients—reportedly between 25 and 50%—fail to tolerate the drug during long term treatment.

[2] = Pharmacokinetics of anagrelide and its metabolite; assay type: in vivo, human; settings: typical exposures, relative to anagrelide
From the text: The PDE III inhibitory properties of anagrelide are quite distinct from its platelet lowering anti-megakaryocytic effects. Indeed studies have shown no correlation between potency as a PDE III inhibitor and anti-megakaryocytic effects for anagrelide and its principal pharmacologically active metabolite, 3-hydroxyanagrelide (3-OH anagrelide or 3-HA, formerly known as SPD604 or BCH24426). […] Anagrelide's active metabolite, 3-HA, is present in vivo in amounts greatly exceeding those of the parent drug with typical exposures being 2-3 fold greater. Thus by implication 3-OH anagrelide is likely to be a major contributor to the pharmacological actions of the drug.
The metabolism of anagrelide generally proceeds extremely rapidly, resulting in a less than ideal pharmacokinetic profile of the drug. […] This, combined with the side-effects profile, can lead to poor patient compliance. Furthermore, anagrelide undergoes a large first pass effect (>50%) leading to considerable intersubject variation in achieved exposures and, therefore, potentially variable drug response. Also, exposure to the pharmacologically active metabolite varies dramatically between patients since its formation is dependent on CYP1A, an enzyme whose expression is highly dependent on exposure to inducing agents such as cigarette smoke. […]

[3] = system: human megakaryocytopoiesis; settings: cited from earlier work
[4] = in vivo; cited from earlier work
[5] = target: human phosphodiesterase III (PDE III); settings: cited from earlier work
[6] = system: erythroid or myelomonocytic differentiation; settings: stimulated by erythropoietin or granulocyte-macrophage colony-stimulating factor; cited from earlier work
[7] = system: platelet count; settings: patients with thrombocythemia secondary to a myeloproliferative disorder; cited from earlier work

potency as PDE III inhibitor relative to anagrelide [1] | exposure in vivo relative to parent drug [2] | Compound | potency of inhibition of megakaryocytopoiesis relative to parent drug ([3]; relative to anagrelide) | typical half-life [4] [h] | IC50 ([3]; TPO-induced, dose-dependent, read-out: estimated IC50, inhibition of TPO-induced megakaryocytopoiesis) [nM] | IC50 [5] [nM] | effect on erythroid or myelomonocytic differentiation [6] | time to complete response (platelet count ≦600×10^9/L) [7] [weeks] | first pass effect [4] [%]
over 40 fold | 2-3 fold | O=C1NC2=Nc3ccc(Cl)c(Cl)c3CN2C1O (stereo not shown) [3-hydroxyanagrelide] | no more potent than the parent drug | 2.5 | – | – | – | – | –
– | – | O=C1CN2Cc3c(ccc(Cl)c3Cl)N=C2N1 [Anagrelide, 6,7-dichloro-1,5-dihydroimidazo[2,1-b]-quinazolin-2(3H)-one] | – | – | ~26 | ~29 | does not affect | 4 to 12 | > 50
– | – | Cc1[nH]c(=O)c(C#N)cc1-c1ccncc1 [milrinone] | – | – | – | 170 to 350 | – | – | –
